These results are taken from PubChem BioAssay (NCI).

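Results reflect a 48-hour exposure of cells in 96-well plates to compound at five concentrations. GI50 marks 50% less growth. Definition used: TGI = concentration required for complete inhibition of growth.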

Among the test systems are HOP-62 NSCLC; A549 NSCLC; TK-10 renal; KM12 colon; NCI-H460 lung; NCI-H522 lung; SK-MEL-2 melanoma; SK-OV-3 ovarian; CAKI-1 renal; SNB-19 CNS.
What all share (assay): NCI tumour cell line growth inhibition, 48 h

Consider `COc1cc(Cc2cnc(/N=C3\C(=O)N(CN4CCN(c5c(F)cc6c(=O)c(C(=O)O)cn(C7CC7)c6c5OC)CC4C)c4ccc(F)cc43)nc2N)cc(OC)c1OC` (centres undefined), for which the GI50 in the assay on HOP-62 NSCLC is 14.4 µM; in the assay with A549 NSCLC, 27 µM; in the assay on TK-10 renal, 11.6 µM; in the assay on KM12 colon, 13.7 µM; in the assay on NCI-H460 lung, 18.9 µM; with NCI-H522 lung, 63.5 µM. Besides, the GI50 is 37.8 µM with SK-MEL-2 melanoma, 15 µM with SK-OV-3 ovarian, 15.5 µM with CAKI-1 renal and 17.7 µM in the assay with SNB-19 CNS. The TGI was 27.4 µM with HOP-62 NSCLC; > 100 µM in the assay on A549 NSCLC; 25.3 µM in the assay on TK-10 renal; 35.9 µM in the assay on KM12 colon; > 100 µM in the assay on NCI-H460 lung; > 100 µM with NCI-H522 lung. Further, the TGI in the assay on SK-MEL-2 melanoma was > 100 µM; in the assay with SK-OV-3 ovarian, 43.1 µM; with CAKI-1 renal it was 36 µM; with SNB-19 CNS, 51.3 µM.

In the case of `Clc1cc2nsnc2c(Cl)n1`, the TGI in the assay on HOP-62 NSCLC was > 100 µM; in the assay on A549 NSCLC, > 100 µM; in the assay with TK-10 renal it was 44 µM; in the assay on KM12 colon it was > 100 µM; in the assay with NCI-H460 lung, > 100 µM; with NCI-H522 lung it was 36.7 µM. In addition, the TGI in the assay on SK-MEL-2 melanoma was 34 µM; in the assay with SK-OV-3 ovarian, > 100 µM; in the assay on CAKI-1 renal it was 24.5 µM; in the assay with SNB-19 CNS, 36.7 µM.

`O=C1/C(=C/c2cccc([N+](=O)[O-])c2)COc2ccc(O)cc21`: the GI50 with HOP-62 NSCLC was 3.21 µM; in the assay with A549 NSCLC it was 4.66 µM; in the assay on TK-10 renal, 2.77 µM; in the assay with KM12 colon, 1.68 µM; in the assay with NCI-H460 lung, 2.69 µM; with NCI-H522 lung it was 1.47 µM. Further, the GI50 in the assay on SK-MEL-2 melanoma is 2.1 µM; in the assay on SK-OV-3 ovarian, 4.64 µM; in the assay with CAKI-1 renal, 1.78 µM; with SNB-19 CNS, 1.96 µM. In addition, the TGI with HOP-62 NSCLC stood at 12.1 µM; in the assay with A549 NSCLC, 16.8 µM; with TK-10 renal it was 9.11 µM; in the assay on KM12 colon, 3.32 µM; in the assay on NCI-H460 lung, 6.65 µM; in the assay on NCI-H522 lung, 3.02 µM. The TGI in the assay on SK-MEL-2 melanoma stood at 5.3 µM; in the assay with SK-OV-3 ovarian it was 15.9 µM; in the assay with CAKI-1 renal, 3.58 µM; in the assay with SNB-19 CNS it was 3.97 µM.

Turning to `NC(=O)c1sc(-n2cnc3ccccc32)cc1OCc1ccccc1Br`, the GI50 is 3.67 µM in the assay with HOP-62 NSCLC; 6.06 µM in the assay with A549 NSCLC; 11.3 µM in the assay with TK-10 renal; 1.26 µM in the assay on KM12 colon; 2.36 µM in the assay on NCI-H460 lung; 3.99 µM in the assay on NCI-H522 lung. In addition, the GI50 in the assay on SK-MEL-2 melanoma was 6.43 µM; in the assay on SK-OV-3 ovarian, 6.94 µM; with CAKI-1 renal it was 14.2 µM; with SNB-19 CNS, 11.6 µM. In addition, the TGI was > 25 µM in the assay on HOP-62 NSCLC; > 25 µM in the assay with A549 NSCLC; > 25 µM in the assay on TK-10 renal; > 25 µM in the assay on KM12 colon; > 25 µM in the assay with NCI-H460 lung; 12.7 µM with NCI-H522 lung. Also, the TGI in the assay with SK-MEL-2 melanoma, in the assay on SK-OV-3 ovarian, in the assay on CAKI-1 renal and with SNB-19 CNS was > 25 µM throughout.

Turning to `COc1cc(/C=N/NC(=O)c2ccc(C(F)(F)F)nc2Nc2ccc(Cl)cc2C)ccc1O`, the GI50 in the assay on HOP-62 NSCLC is 3.78 µM; in the assay on A549 NSCLC, 3.54 µM; with TK-10 renal it was 5.13 µM; in the assay on KM12 colon, 2.23 µM; in the assay with NCI-H460 lung it was 2.65 µM; in the assay on NCI-H522 lung, 3.31 µM. In addition, the GI50 in the assay with SK-MEL-2 melanoma is 2.14 µM; with SK-OV-3 ovarian, 3.79 µM; in the assay on CAKI-1 renal, 2.23 µM; in the assay with SNB-19 CNS, 3.73 µM. The TGI in the assay with HOP-62 NSCLC came to 19.7 µM; in the assay on A549 NSCLC, 15.1 µM; in the assay with TK-10 renal, 17.3 µM; in the assay with KM12 colon, 7.16 µM; in the assay on NCI-H460 lung, 11.7 µM; in the assay on NCI-H522 lung, 14.2 µM. The TGI in the assay on SK-MEL-2 melanoma amounted to 11.9 µM; with SK-OV-3 ovarian, 15.6 µM; in the assay on CAKI-1 renal, 10.8 µM; in the assay with SNB-19 CNS, 14.5 µM.

As to `O=C1CC(c2ccc3c(c2)OCO3)Nc2ccccc21` (centres undefined), the GI50 with HOP-62 NSCLC was 14.2 µM; in the assay on A549 NSCLC, 17.1 µM; in the assay on TK-10 renal, 25.7 µM; with KM12 colon it was 5.36 µM; with NCI-H460 lung, 9.02 µM; in the assay with NCI-H522 lung it was 12.9 µM. Further, the GI50 in the assay with SK-MEL-2 melanoma was 12.7 µM; in the assay on SK-OV-3 ovarian, 16.8 µM; with CAKI-1 renal, 5.31 µM; with SNB-19 CNS it was 12.5 µM. In addition, the TGI in the assay with HOP-62 NSCLC worked out at 86 µM; in the assay on A549 NSCLC, 76.6 µM; with TK-10 renal, 99.4 µM; in the assay with KM12 colon, 20.8 µM; in the assay on NCI-H460 lung it was 33.7 µM; in the assay on NCI-H522 lung, 38.8 µM. Further, the TGI with SK-MEL-2 melanoma is > 62.8 µM; in the assay with SK-OV-3 ovarian, > 100 µM; in the assay on CAKI-1 renal, 47.5 µM; in the assay on SNB-19 CNS, 30.2 µM.

Turning to `O=C1C(Cl)=C(Nc2cccc(Cl)c2)C(=O)N1Cc1ccc(Cl)cc1Cl`, the GI50 in the assay with HOP-62 NSCLC was 5.61 µM; in the assay with A549 NSCLC, 3.85 µM; in the assay with TK-10 renal, 11.5 µM; in the assay with KM12 colon, 7.89 µM; with NCI-H460 lung, 2.68 µM; in the assay on NCI-H522 lung, 0.265 µM. Moreover, the GI50 was 1.6 µM in the assay on SK-MEL-2 melanoma, 3.57 µM in the assay with SK-OV-3 ovarian, 5.36 µM with CAKI-1 renal and 0.842 µM with SNB-19 CNS. Besides, the TGI stood at 22.8 µM in the assay on HOP-62 NSCLC; 19.6 µM with A549 NSCLC; 31.7 µM with TK-10 renal; 39.2 µM with KM12 colon; 21 µM in the assay with NCI-H460 lung; 5.86 µM in the assay with NCI-H522 lung. Besides, the values for the TGI with SK-OV-3 ovarian, in the assay with CAKI-1 renal and with SNB-19 CNS were 20.6 µM, 48.5 µM and 18 µM, respectively.
